Measured values reported in PubChem BioAssay (NCI).
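Cells were grown in 96-well plates and exposed to each compound for 48 hours at five concentrations; endpoints were interpolated linearly between bracketing concentrations, or set to the highest concentration if not reached. Here, GI50 denotes the concentration required for 50% inhibition of growth. TGI is the concentration that stops growth completely.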

Tests used:
Test in all cases: NCI anticancer screen, dose series, 48 h
A549 NSCLC = tested on: A549 NSCLC
ACHN renal = tested on: ACHN renal
CCRF-CEM leukemia = tested on: CCRF-CEM leukemia
HL-60(TB) leukemia = tested on: HL-60(TB) leukemia
KM12 colon = tested on: KM12 colon
MALME-3M melanoma = tested on: MALME-3M melanoma
NCI-H23 lung = tested on: NCI-H23 lung
SK-MEL-28 melanoma = tested on: SK-MEL-28 melanoma
TK-10 renal = tested on: TK-10 renal
UO-31 renal = tested on: UO-31 renal

| Structure (SMILES) | GI50 (A549 NSCLC) [µM] | TGI (A549 NSCLC) [µM] | GI50 (ACHN renal) [µM] | TGI (ACHN renal) [µM] | GI50 (CCRF-CEM leukemia) [µM] | TGI (CCRF-CEM leukemia) [µM] | GI50 (HL-60(TB) leukemia) [µM] | TGI (HL-60(TB) leukemia) [µM] | GI50 (KM12 colon) [µM] | TGI (KM12 colon) [µM] | GI50 (MALME-3M melanoma) [µM] | TGI (MALME-3M melanoma) [µM] | GI50 (NCI-H23 lung) [µM] | TGI (NCI-H23 lung) [µM] | GI50 (SK-MEL-28 melanoma) [µM] | TGI (SK-MEL-28 melanoma) [µM] | GI50 (TK-10 renal) [µM] | TGI (TK-10 renal) [µM] | GI50 (UO-31 renal) [µM] | TGI (UO-31 renal) [µM] |
| --- | --- | --- | --- | --- | --- | --- | --- | --- | --- | --- | --- | --- | --- | --- | --- | --- | --- | --- | --- | --- |
| CN(C)CCCNC(=O)c1cc2[nH]c3c(cnc4ccc([N+](=O)[O-])cc43)c(=O)c2n1C | 17.9 | 32.1 | 14.5 | 27.9 | 14.5 | 30.6 | 12.2 | 34.4 | 12 | 25.2 | 21.3 | 40.4 | 20.5 | 44.1 | 19.7 | 33.9 | 14.3 | 28.2 | 17 | 32.1 |
| CCCCCCCCCC1(N=[N+]=[N-])C(=O)c2ccccc2N(C)C1=O (centres undefined) | – | 95.1 | – | > 100 | – | > 100 | – | > 100 | – | > 100 | – | 70.2 | – | 97.4 | – | 78.8 | – | > 100 | – | > 100 |
| CCCC(=O)n1[nH]c(=O)n(-c2ccc(Cl)cc2)c1=O | – | > 100 | – | > 100 | – | > 100 | – | > 100 | – | > 100 | – | > 100 | – | > 100 | – | > 100 | – | > 100 | – | > 100 |
| COc1cc(OC)c(-c2ccc(OCc3ccccc3)c3c(OC)cc(C)cc23)c2c1C(C)=N[C@H](C)C2 | – | 4.22 | – | 4.01 | – | 4.36 | – | 4.4 | – | 4.07 | – | 3.57 | – | 4.23 | – | 4.38 | – | 3.43 | – | 2.63 |
| CC(C)(C)NC(NC(C)(C)C)=C(/C=C(/Cl)[N+](=O)[O-])[N+](=O)[O-] | – | 95.3 | – | > 100 | – | > 100 | – | 53.5 | – | > 100 | – | 24.4 | – | > 100 | – | > 100 | – | > 100 | – | > 100 |
| O=C1C2CC=CCC2C(=O)N1n1c(Cc2ccc(Cl)cc2)n[nH]c1=O (centres undefined) | – | > 100 | – | > 100 | – | > 100 | – | > 100 | – | > 100 | – | > 100 | – | > 100 | – | > 100 | – | > 100 | – | > 100 |
| Nc1ccc(Oc2ccc(C34CC5CC6C3CC3CC4C(C5)C6(c4ccc(Oc5ccc(N)cc5)cc4)C3)cc2)cc1 | – | > 83.8 | – | > 100 | – | > 63.6 | – | 22 | – | > 100 | – | 2.81 | – | > 82.9 | – | > 81.2 | – | > 68.6 | – | > 100 |
| O=C1C(Cl)N(c2ccc(Cl)cc2)C1c1c[nH]c2ccccc12 (centres undefined) | – | > 100 | – | – | – | > 100 | – | 44.5 | – | > 100 | – | 25.6 | – | 62.8 | – | 96.5 | – | 34.8 | – | 35 |
| CC(=O)O[C@H]1C[C@H]2[C@@H](OC(C)=O)/C=C3\C[C@](C)(C(=O)[C@H](O)C(=C1C)C2(C)C)[C@@H](O)C[C@@H]3OC(=O)[C@H](O)[C@H](c1ccccc1)N(C)C | – | > 100 | – | > 100 | – | > 100 | – | > 100 | – | > 100 | – | > 100 | – | > 100 | – | > 100 | – | > 100 | – | > 100 |
| CN(Cc1cnc2nc(N)nc(N)c2n1)c1ccc(C(=O)NC(CCC(=O)NCCC(P(=O)(O)O)P(=O)(O)O)C(=O)O)cc1 (centres undefined) | – | > 100 | – | > 100 | – | > 100 | – | > 100 | – | > 100 | – | > 100 | – | > 100 | – | > 100 | – | > 100 | – | > 100 |
| C1C2CC3CC1CC(Nc1nc(NC45CC6CC(CC(C6)C4)C5)nc(NC45CC6CC(CC(C6)C4)C5)n1)(C2)C3 | – | > 100 | – | > 100 | – | > 100 | – | > 100 | – | > 51.5 | – | > 100 | – | > 100 | – | > 93.2 | – | > 100 | – | > 100 |
| COc1ccc(N2C(=O)C(=O)N(c3ccccc3[N+](=O)[O-])C2=S)cc1 | – | > 100 | – | 74.8 | – | > 100 | – | > 100 | – | 71.9 | – | > 100 | – | 53.5 | – | > 100 | – | 65.7 | – | > 100 |
| O=C(O)CC1NC(/C(=C/c2ccccc2)NC(=O)c2ccccc2)OC1=O (centres undefined) | – | > 100 | – | > 100 | – | 86.6 | – | 38 | – | 34.1 | – | > 100 | – | > 100 | – | 52.4 | – | > 100 | – | 59 |
| CN1CCN(C(=O)CCNC(=O)Cc2ccc(C(=O)c3ccccc3)cc2)CC1 | – | > 100 | – | > 100 | – | > 100 | – | > 100 | – | > 100 | – | > 100 | – | > 100 | – | > 100 | – | > 100 | – | > 100 |
| COc1cccc2c1OC(c1ccc(Cl)cc1)C([N+](=O)[O-])=C2 (centres undefined) | – | 22.5 | – | 3.28 | – | 4 | – | > 100 | – | 4.84 | – | 5.32 | – | 21.2 | – | 7.19 | – | 16 | – | 3.44 |
| C=C1C(=O)C[C@H]2C(=C)C(=O)O[C@@H]2C2C1CC[C@@]2(C)O (some centres undefined) | – | > 100 | – | 25 | – | > 100 | – | > 100 | – | > 100 | – | 44.9 | – | 59.4 | – | 85.5 | – | 41.4 | – | 74.2 |
| COC(=O)CC(C#N)(OP1(=O)OC(c2ccccc2)C(C)N1C)c1ccccc1 (centres undefined) | – | > 100 | – | 59.8 | – | 38.7 | – | 58 | – | 48.8 | – | > 100 | – | 97.9 | – | > 100 | – | > 100 | – | 27.2 |
| C[N+](CCCl)(CCCl)Cc1cccc2cccc([N+](=O)[O-])c12 | – | > 100 | – | > 100 | – | > 100 | – | > 100 | – | > 100 | – | > 100 | – | > 100 | – | > 100 | – | > 100 | – | > 100 |
| OC1(C(F)(F)F)OCCN=C1C(F)(F)F (centres undefined) | – | > 100 | – | > 100 | – | > 100 | – | > 100 | – | > 100 | – | 76.4 | – | > 100 | – | > 100 | – | > 100 | – | > 100 |
